Measured values published in ChEMBL document CHEMBL3232879, “4,5,6,7-Tetrahydro-isoxazolo-[4,5-c]-pyridines as a new class of cytotoxic Hsp90 inhibitors” (Eur J Med Chem, 2014).

What was measured:
[1] = molecular target: Heat shock protein HSP 90-alpha (Homo sapiens, UniProt P07900); test: Displacement of GM-FTC from Hsp90-alpha (unknown origin) after 4 hrs by fluorescence polarization assay
[2] = molecular target: Histone deacetylase 2 (Homo sapiens, UniProt Q92769); test: Inhibition of human HDAC-2 using RHKK(Ac) as substrate
Chain of Histone deacetylase 2 (Q92769 whole entry): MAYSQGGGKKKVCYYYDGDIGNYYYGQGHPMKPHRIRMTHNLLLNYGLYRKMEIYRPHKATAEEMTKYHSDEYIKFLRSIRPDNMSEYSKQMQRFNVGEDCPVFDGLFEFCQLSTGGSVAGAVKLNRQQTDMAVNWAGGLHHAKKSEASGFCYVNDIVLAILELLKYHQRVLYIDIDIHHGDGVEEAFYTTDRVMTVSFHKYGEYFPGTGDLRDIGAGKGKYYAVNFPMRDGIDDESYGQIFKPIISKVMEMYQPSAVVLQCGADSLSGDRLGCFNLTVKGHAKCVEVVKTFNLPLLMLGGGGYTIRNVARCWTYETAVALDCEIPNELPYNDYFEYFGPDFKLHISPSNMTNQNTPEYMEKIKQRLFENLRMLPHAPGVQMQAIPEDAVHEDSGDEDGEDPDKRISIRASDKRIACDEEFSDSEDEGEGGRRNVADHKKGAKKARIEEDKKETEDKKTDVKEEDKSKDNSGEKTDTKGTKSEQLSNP

[3] = molecular target: Histone deacetylase 4 (Homo sapiens, UniProt P56524); test: Inhibition of human HDAC-4 using RHKK(Ac) as substrate
Chain of Histone deacetylase 4 (P56524 whole entry): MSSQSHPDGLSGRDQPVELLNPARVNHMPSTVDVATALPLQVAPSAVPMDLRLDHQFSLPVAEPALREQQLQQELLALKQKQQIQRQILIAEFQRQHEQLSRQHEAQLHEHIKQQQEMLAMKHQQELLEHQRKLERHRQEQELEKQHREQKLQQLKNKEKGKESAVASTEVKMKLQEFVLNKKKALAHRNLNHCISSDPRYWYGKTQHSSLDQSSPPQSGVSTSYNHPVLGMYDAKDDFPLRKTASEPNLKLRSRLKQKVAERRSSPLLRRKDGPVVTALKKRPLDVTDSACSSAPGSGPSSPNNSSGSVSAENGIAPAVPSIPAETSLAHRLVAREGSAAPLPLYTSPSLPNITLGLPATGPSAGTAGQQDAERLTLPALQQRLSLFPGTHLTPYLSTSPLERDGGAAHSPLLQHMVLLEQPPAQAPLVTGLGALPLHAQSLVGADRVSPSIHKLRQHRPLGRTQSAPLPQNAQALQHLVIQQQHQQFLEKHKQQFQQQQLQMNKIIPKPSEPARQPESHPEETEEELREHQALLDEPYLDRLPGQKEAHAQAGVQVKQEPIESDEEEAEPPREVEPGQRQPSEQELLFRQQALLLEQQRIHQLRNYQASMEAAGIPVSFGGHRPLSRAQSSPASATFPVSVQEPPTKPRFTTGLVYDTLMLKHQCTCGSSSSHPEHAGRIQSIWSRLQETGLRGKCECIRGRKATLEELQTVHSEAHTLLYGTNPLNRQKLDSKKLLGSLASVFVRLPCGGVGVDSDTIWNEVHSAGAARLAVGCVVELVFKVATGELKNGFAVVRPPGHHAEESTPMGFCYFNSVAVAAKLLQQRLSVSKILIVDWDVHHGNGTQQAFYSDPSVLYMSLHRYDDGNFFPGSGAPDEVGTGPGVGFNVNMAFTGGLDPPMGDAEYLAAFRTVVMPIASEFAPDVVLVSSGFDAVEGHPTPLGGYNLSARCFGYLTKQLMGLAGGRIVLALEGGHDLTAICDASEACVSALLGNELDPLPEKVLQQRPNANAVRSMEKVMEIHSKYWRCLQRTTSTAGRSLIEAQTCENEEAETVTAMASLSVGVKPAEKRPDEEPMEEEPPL

[4] = molecular target: Histone deacetylase 5 (Homo sapiens, UniProt Q9UQL6); test: Inhibition of human HDAC-5 using RHKK(Ac) as substrate
Chain of Histone deacetylase 5 (Q9UQL6 whole entry): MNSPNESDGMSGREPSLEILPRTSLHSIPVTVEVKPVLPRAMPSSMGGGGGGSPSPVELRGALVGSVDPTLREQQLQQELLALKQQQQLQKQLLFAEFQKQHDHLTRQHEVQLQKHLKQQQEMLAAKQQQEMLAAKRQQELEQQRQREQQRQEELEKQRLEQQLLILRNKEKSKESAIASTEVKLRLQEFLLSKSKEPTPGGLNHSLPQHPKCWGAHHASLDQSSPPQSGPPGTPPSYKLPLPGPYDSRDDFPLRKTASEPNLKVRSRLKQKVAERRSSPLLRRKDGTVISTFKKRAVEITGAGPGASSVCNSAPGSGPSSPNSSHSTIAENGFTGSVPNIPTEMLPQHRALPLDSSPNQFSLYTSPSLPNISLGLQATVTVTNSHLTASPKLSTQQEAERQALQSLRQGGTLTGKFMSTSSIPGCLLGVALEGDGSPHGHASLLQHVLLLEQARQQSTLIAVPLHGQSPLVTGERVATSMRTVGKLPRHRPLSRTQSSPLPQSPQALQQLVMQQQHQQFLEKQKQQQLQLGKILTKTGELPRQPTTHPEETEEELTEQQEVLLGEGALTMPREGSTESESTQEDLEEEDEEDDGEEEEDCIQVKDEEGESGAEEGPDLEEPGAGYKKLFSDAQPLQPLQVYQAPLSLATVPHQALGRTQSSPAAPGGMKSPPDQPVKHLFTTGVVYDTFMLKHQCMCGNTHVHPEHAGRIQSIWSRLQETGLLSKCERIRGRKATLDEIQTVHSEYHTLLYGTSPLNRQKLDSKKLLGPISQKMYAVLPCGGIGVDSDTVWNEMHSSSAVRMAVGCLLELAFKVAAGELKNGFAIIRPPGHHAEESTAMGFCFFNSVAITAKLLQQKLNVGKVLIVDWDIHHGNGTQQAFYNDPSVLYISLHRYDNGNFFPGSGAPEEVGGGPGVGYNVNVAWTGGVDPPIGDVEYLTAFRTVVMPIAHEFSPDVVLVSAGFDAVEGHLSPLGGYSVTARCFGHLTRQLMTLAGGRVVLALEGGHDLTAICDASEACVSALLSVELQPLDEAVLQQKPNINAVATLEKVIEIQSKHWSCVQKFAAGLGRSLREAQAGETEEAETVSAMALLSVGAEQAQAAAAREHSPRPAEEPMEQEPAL

[5] = molecular target: T1, Protein deacetylase HDAC6 (Homo sapiens, UniProt Q9UBN7); test: Inhibition of human HDAC-6 using RHKK(Ac) as substrate
T1 sequence (Q9UBN7 whole entry): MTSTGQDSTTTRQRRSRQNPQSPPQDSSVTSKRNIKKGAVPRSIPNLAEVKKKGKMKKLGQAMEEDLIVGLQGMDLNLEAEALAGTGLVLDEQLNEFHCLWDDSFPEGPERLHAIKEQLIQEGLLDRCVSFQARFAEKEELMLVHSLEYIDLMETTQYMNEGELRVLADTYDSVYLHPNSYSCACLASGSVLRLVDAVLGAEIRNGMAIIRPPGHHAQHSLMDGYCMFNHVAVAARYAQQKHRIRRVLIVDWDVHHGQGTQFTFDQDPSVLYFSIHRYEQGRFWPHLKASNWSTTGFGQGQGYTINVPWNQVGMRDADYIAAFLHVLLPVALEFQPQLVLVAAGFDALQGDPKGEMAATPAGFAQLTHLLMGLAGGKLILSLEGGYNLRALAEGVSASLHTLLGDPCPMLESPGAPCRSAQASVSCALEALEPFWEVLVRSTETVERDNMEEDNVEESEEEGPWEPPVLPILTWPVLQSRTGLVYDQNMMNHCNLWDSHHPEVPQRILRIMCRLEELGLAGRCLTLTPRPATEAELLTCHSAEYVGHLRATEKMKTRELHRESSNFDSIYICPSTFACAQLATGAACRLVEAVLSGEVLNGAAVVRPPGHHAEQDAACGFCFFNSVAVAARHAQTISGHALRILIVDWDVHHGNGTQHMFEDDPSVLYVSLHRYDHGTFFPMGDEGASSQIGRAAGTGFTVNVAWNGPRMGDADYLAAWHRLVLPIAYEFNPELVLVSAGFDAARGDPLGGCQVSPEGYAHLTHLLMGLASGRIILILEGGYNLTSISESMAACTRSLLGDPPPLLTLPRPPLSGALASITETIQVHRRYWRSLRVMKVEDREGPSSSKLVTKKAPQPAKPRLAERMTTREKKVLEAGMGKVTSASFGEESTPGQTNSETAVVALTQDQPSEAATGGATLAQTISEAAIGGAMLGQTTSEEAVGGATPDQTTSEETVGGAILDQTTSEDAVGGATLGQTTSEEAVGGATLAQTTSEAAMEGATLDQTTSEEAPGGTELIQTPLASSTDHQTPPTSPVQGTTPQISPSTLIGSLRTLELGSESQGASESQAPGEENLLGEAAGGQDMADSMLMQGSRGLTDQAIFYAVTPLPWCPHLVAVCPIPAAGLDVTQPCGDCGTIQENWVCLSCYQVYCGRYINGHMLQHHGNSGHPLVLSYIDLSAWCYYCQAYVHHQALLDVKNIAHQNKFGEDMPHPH

[6] = molecular target: T2, Histone deacetylase 7 (Homo sapiens, UniProt Q8WUI4); test: Inhibition of human HDAC-7 using RHKK(Ac) as substrate
T2 sequence (Q8WUI4 whole entry): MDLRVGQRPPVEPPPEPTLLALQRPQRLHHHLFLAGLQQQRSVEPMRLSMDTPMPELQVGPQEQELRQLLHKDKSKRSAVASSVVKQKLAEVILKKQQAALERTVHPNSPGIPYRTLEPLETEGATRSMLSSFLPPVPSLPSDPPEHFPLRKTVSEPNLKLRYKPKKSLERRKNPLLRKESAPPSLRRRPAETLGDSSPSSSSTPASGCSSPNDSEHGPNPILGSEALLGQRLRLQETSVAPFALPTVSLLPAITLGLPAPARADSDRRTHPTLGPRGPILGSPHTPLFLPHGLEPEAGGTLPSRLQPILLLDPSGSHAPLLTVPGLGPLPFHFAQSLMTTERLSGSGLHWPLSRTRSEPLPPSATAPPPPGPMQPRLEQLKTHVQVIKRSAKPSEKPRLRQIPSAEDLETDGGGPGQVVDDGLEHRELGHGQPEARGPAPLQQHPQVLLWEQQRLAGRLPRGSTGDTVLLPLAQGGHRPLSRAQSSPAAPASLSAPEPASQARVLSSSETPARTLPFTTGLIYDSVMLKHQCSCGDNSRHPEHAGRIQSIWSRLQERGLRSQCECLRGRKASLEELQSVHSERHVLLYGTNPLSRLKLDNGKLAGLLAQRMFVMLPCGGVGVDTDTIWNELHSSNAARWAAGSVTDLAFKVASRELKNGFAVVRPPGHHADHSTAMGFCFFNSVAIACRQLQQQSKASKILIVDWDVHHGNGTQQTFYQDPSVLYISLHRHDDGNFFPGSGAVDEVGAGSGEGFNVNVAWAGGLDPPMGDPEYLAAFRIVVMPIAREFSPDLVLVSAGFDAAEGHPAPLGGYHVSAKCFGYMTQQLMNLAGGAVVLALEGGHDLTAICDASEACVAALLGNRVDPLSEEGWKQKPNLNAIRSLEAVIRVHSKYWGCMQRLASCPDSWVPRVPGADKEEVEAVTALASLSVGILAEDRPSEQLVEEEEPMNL

[7] = molecular target: T3, Histone deacetylase 11 (Homo sapiens, UniProt Q96DB2); test: Inhibition of human HDAC-11 using RHKK(Ac) as substrate
T3 sequence (Q96DB2 whole entry): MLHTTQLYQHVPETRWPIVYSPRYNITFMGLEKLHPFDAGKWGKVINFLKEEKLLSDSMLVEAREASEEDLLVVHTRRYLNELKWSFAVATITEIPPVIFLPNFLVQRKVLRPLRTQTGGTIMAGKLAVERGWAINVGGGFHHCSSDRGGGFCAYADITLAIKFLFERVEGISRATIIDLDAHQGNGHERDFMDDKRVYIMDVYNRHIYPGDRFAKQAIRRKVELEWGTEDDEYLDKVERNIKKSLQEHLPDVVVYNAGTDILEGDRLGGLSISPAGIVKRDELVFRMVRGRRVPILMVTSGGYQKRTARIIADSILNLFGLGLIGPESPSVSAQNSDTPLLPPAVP

Q: `CC(C)c1cc(C(=O)N2CCc3onc(C(=O)NCCCCCCC(=O)NO)c3C2)c(O)cc1O` was tested. Which IC50 [1] did it give?
A: 33 nM

Q: What about the IC50 [2] of the same compound?
A: 9490 nM

Q: And the IC50 [3]?
A: 75900 nM

Q: And the IC50 [4]?
A: 1580 nM

Q: What about the IC50 [5] of the same compound?
A: 4.1 nM

Q: What about the IC50 [6] of the same compound?
A: 2510 nM

Q: What about the IC50 [7] of the same compound?
A: 521 nM
